Data set [1] in a line: Bubble cell test, corrosion rate by linear polarization resistance (LPR). The note with it: 66° C.; for % Protection: 10 ppm CI composition (2 ppm active) with 0.5 ppm 2-mercaptoethanol, versus avg. blank corrosion rate, 22 hour; for Corrosion rate after 22 hour CI injection: 10 ppm CI composition (20% active = 2 ppm active) with 0.5 ppm 2-mercaptoethanol, CO2-saturated synthetic brine 80% / LVT-200 20%, 100 rpm. Here is the method: Examples were conducted to assess the corrosion inhibitors produced in Example 1 using bubble cell tests to assess corrosion performance using linear polarization resistance testing. The corrosion inhibitor was combined with the sulfur synergist 2-mercaptoethanol.
The bubble test simulates low flow areas where little or no mixing of water and oil occurs. The test was conducted using synthetic brine (80% of the brine and 20% of a hydrocarbon containing LVT-200) as shown in Table 1.
The brine was placed into kettles and purged with carbon dioxide resulting in carbon dioxide saturated brine. The brine was continually purged with carbon dioxide at 1 bar CO2 to saturate the brine prior to starting the test for a 2 hour pre-corrode. After the test began, the test cell was blanketed with carbon dioxide one hour prior to electrode insertion and through the duration of the test to maintain saturation. The kettles were stirred at 100 revolutions per minute (rpm) for the duration of the test at 66° C.
The corrosion rate was measured by Linear Polarization Resistance (LPR) techniques. The working electrode used was carbon steel (C1018 grade). The counter and reference electrodes were both 1018 carbon steel. The electrodes were all cleaned and polished prior to testing. Data were collected for 2 hours before 10 ppm of the corrosion inhibitor composition (containing 20% of the reaction product corrosion inhibitor) was added to the hydrocarbon phase, equating to 2 ppm of the active reaction product corrosion inhibitor with 0.5 ppm 2-mercaptoethanol being introduced into the test cell. Data were collected overnight for 22 hour test duration.

A short description of data set [2]: Partitioning test, brine/oil, LC-MS analysis. It counts as physicochemical. The note with it: 50 ppm dosed into oil layer; 50 mL synthetic brine, 25 mL aromatic 150, 25 mL LVT 200; room temperature; 1 hour rest. Here is the method:
Additional comparison testing was conducted on the alkyl diquaternary compound corrosion inhibitor of Example 1 (corrosion inhibitor VIa) compared to as conventional quaternary ammonium compounds. Partitioning tests were conducted of the corrosion inhibitor (VIa) and a quaternary ammonium compound (trimethylstearyl benzyl chloride quat) to determine the partitioning coefficient via LC-MS (Liquid Chromatography-Mass Spectroscopy) analysis.
At room temperature, 50 mL of the synthetic brine of Table 1, 25 mL of aromatic 150, and 25 mL of LVT 200 were pipetted into a 125-mL separational funnel. 50 ppm of the corrosion inhibitor (VIa) or trimethylstearyl benzyl chloride quat were dosed into the oil layer of the funnel. The cap was inserted into the funnel and the mixture was shaken vigorously for one minute and then set for an hour. After the hour rest, the bottom layer (brine layer) was drained and collected for LC-MS analysis. LC-MS analysis determines the amount of the corrosion inhibitor (VIa) and trimethylstearyl benzyl chloride quat that partitioned into the brine phase. The amount found in the brine phase was compared to the original amount introduced into the oil phase of the brine/oil solution (50 ppm) and a percentage amount is calculated. The percent amount of the corrosion inhibitor (VIa) and trimethylstearyl benzyl chloride quat present in the brine phase is shown in Table 4.

Consider `CCCCCCCCCCCCCCCCCC[N+](C)(C)CC(O)C[N+](CCO)(CCO)CCO` (stereo not drawn) [VIa], for which, in data set [1], the “% Protection” value worked out at 99.3% and the “Corrosion rate after 22 hour CI injection” value turned out to be 1.5 mpy. The “% Partitioning to brine phase” value in data set [2] turned out to be 84.1%.
alkyl dimethyl benzyl chloride quat: in data set [1], the “% Protection” value is 99.3% and the “Corrosion rate after 22 hour CI injection” value is given as 1.4 mpy.
With trimethylstearyl benzyl chloride quat, the “% Partitioning to brine phase” value in data set [2] is 28.4%.

The record behind these values is patent publication US20250075126A1, “DIQUATERNARY COMPOUNDS FOR CORROSION INHIBITION AND METHODS OF USE THEREOF” (ChampionX LLC, priority 2023, published 2025).
